Source: article PMC12056667 (Chemical Science, 2025)
“And” between values parts separate entries of the source, which are not always exact repeats. Equal values may be shown once. Read-outs that look alike come from different tables or passages of the source.

What was measured:
Tet(X4) [1] = target: T1, Tet(X4) (Escherichia coli, UniProt A0A3T0V9Y5); test: FP competitive displacement of probe 6; type: binding; conditions: IC50app, 25 nM 6, 40 nM Tet(X4), 5 mM MgCl2, 1 μM FAD, 100 mM Tris pH 7.0, 0.01% Triton X-100
Experimental: A 2× solution containing 80 nM Tet(X4), 2 μM FAD and 10 mM MgCl2 in the assay buffer was dispensed into the first 22 columns of a 384-well black, non-binding microtiter plate (Greiner Bio-One), 12.5 μL per well, using a microplate reagent dispenser. A solution of 2 μM FAD and 10 mM MgCl2 in the assay buffer was dispensed into the remaining columns to serve as a no enzyme control. A 3-fold, 10-point dilution series of substrates and inhibitors was made in DMSO in a V-bottom 96-well plate (Greiner Bio-One) with a highest concentration of 5 mM or 0.5 mM. Into one column was added DMSO with no inhibitor or substrate, to serve as a positive control. Tigecycline was included as a reference on every plate to ensure reproducibility. 0.5 μL of each dilution was transferred in quadruplicate to the 384-well plate containing enzyme solution using a CyBi-Well liquid-handling robot (CyBio). A solution of 50 nM 6 in the assay buffer was then dispensed, with 12.5 μL per well. The plate was briefly centrifuged (1000 rpm), then incubated at ambient temperature for 30 min prior to measuring the FP. Data points were normalised between the positive and negative controls. Normalised % response was plotted as a function of log10([Inhibitor]), and the IC50^app was determined by fitting the data to the equation: Y = Bottom + (top-bottom)/(1 + 10^Log(IC50) − X) × HillSlope in GraphPad Prism 9.4.1, where Y = % response and X = log10([Inhibitor]). Wells with unusual fluorescence intensities were manually identified and removed from the analysis. […]

Tet(X4) [2] = target: T1, Tet(X4); test: biochemical; conditions: 20 μM tigecycline, 50 nM Tet(X4), 100 μM NADPH, 5 mM MgCl2, 1 μM FAD, 100 mM TAPS pH 8.5; read-out: IC50, UPLC assay
Experimental: We then tested the binding of reported type 1 TDase inhibitors to Tet(X4) (Fig. 3f, ESI Fig. S17 ^†).[33,38,39] […] We also developed a complementary endpoint activity assay where the turnover of tigecycline by Tet(X4) in a 96-well plate was quenched by addition of 1%v/v formic acid and analysed chromatographically. The peak integrals of tigecycline and its hydroxylated degradation product at 254 nm following UPLC analysis were measured to determine turnover (Fig. 5a).
[…] A 3-fold, 10-point dilution series of the substrates and inhibitors was made in DMSO with a top concentration of 10 mM, unless otherwise stated, and transferred to the enzyme solution using a CyBi-Well liquid-handling robot (CyBio), 1 μL per well. On each plate, a column of no enzyme negative controls and no inhibitor (DMSO only) positive controls were included. The plate was incubated at 30 °C for 15 min. A solution containing 100 mM TAPS (pH 8.5), 40 μM tigecycline and 200 μM NADPH was then dispensed, with 49 μL per well. The plate was incubated at 30 °C for 20 min at 600 rpm. 10 μL of 10%v/v formic acid solution was then dispensed into all wells. Samples were analysed using an ACQUITY H-Class PLUS UPLC instrument (Waters) equipped with a pre-equilibrated ACQUITY BEH C18 column ([…], […], Waters) using a gradient of 1–50%v/v acetonitrile with 0.1%v/v formic acid in water with 0.1%v/v formic acid over 1.83 minutes at a flow rate of 0.5 mL min^−1. Instrument control and data processing were performed using MassLynx V4.1 software. The peaks representing tigecycline and 11a-hydroxy-tigecycline were integrated, used to calculate % conversion and then normalised between positive and negative controls. The normalised % response was plotted as a function of log10[Inhibitor], and the IC50 determined as described above.

[3] = test system: E. coli TOP10 containing plasmid pBAD-TOPO-Tet(X4); test: Broth microdilution MIC and checkerboard assay; type: cell-based, Escherichia coli; conditions: for MIC: Escherichia coli; for Antibiotic MIC / Tet(X) inhibitor MIC: alone; for Combination (antibiotic/inhibitor) MIC: inhibitor: inhibitor in combination with tigecycline; for Combination (antibiotic/inhibitor) MIC: inhibitor / Combination (antibiotic/inhibitor) MIC: antibiotic: lowest FICI; for Combination (antibiotic/inhibitor) MIC: antibiotic: tigecycline in combination with the inhibitor; for FICI / Outcome: with tigecycline
From the text: Tet(X4) was sub-cloned from the Tet(X4) pET28b-(+) expression vector via TOPO cloning. The insert was amplified using the taq polymerase with the forward primer 5′- […]-3′ and the reverse primer 5′- […]-3’. Following PCR purification (Thermo Fisher Scientific), the A-tailed PCR product was ligated into the pBAD-TOPO vector using a TOPO cloning kit (Invitrogen) according to the manufacturer's protocol. Following amplification in E. coli NEB5α cells (NEBiolabs), the fidelity of the insert was confirmed by Sanger sequencing (Eurofins). For microbiological experiments, E. coli TOP10 cells were used as the recipient strain. Cells were plated on Mueller-Hinton agar (MHA) plates containing ampicillin at 100 μg mL^−1. The introduction of pBAD-TOPO-Tet(X4) was confirmed by colony PCR. Strains were stored in a freezer at −80 °C in cryopreservation beads.
(§1) MIC tests and checkerboard assays were performed in U-bottom, 96-well microtiter plates using a modified broth microdilution protocol following CLSI guidelines. Cation-adjusted Mueller-Hinton Broth (CAMHB) was prepared fresh on the day of testing.[74] […] Bacterial colonies were selected from an overnight culture on MHA plates (supplemented with 0.2%w/vL-arabinose for E. coli TOP10 containing pBAD-TOPO-Tet(X4)) and were suspended in 0.9% saline solution to achieve a 0.5 McFarland standard. A 100 μL aliquot of this suspension was then diluted into 9.9 mL of CAMHB to yield approximately 1.5 × 10^6 cfu mL^−1. 50 μL of the suspension was then added to each well of a microtiter plates. Plates were incubated at 37 °C for 18 h. At least 2 replicates were conducted for each combination. E. coli TOP10 + pBAD-TOPO-Tet(X4) cells were grown in the absence and presence of 0.2%w/vL-arabinose. Analysis of the MIC and checkerboard results were carried out by visual inspection of growth, with and without resazurin dye, an oxidation–reduction indicator.[75] As a measure of synergy, fractional inhibitory concentration index (FICI) was calculated as FICA + FICB, where FICA and FICB are the MICcombination/MICalone for each agent, respectively.[76] Results were interpreted as follows: synergistic (<0.5), indifferent (1.0–4.0) or antagonistic (>4.0).[64] In cases where the MIC exceeded or was below the measured range, the borderline value was taken to calculate the FIC index.

[4] = test system: Acinetobacter spp. NT3-1 – tet(X3); test: microbe, parasite or virus in culture; type: cell-based; conditions: for Antibiotic MIC: alone
Experimental: (§2) MIC tests and checkerboard assays were performed in U-bottom, 96-well microtiter plates using a modified broth microdilution protocol following CLSI guidelines. Cation-adjusted Mueller-Hinton Broth (CAMHB) was prepared fresh on the day of testing.[74] In brief, assays were set up in a total volume of 100 μL per well and titrations comprised seven 2-fold dilutions of inhibitors and ten 2-fold dilutions of tigecycline in CAMHB. Bacterial colonies were selected from an overnight culture on MHA plates (supplemented with 0.2%w/vL-arabinose for E. coli TOP10 containing pBAD-TOPO-Tet(X4)) and were suspended in 0.9% saline solution to achieve a 0.5 McFarland standard. A 100 μL aliquot of this suspension was then diluted into 9.9 mL of CAMHB to yield approximately 1.5 × 10^6 cfu mL^−1. 50 μL of the suspension was then added to each well of a microtiter plates. Plates were incubated at 37 °C for 18 h. At least 2 replicates were conducted for each combination. E. coli TOP10 + pBAD-TOPO-Tet(X4) cells were grown in the absence and presence of 0.2%w/vL-arabinose. Analysis of the MIC and checkerboard results were carried out by visual inspection of growth, with and without resazurin dye, an oxidation–reduction indicator.[75] As a measure of synergy, fractional inhibitory concentration index (FICI) was calculated as FICA + FICB, where FICA and FICB are the MICcombination/MICalone for each agent, respectively.[76] Results were interpreted as follows: synergistic (<0.5), indifferent (1.0–4.0) or antagonistic (>4.0).[64] In cases where the MIC exceeded or was below the measured range, the borderline value was taken to calculate the FIC index.

[5] = test system: Salmonella enterica T-2a – tet(X4); test: microbe, parasite or virus in culture; type: cell-based; conditions: for Antibiotic MIC: alone, S. enterica T-2a
Experimental: as §2

[6] = test system: Acinetobacter baumannii NT5-1 – tet(X5); test: microbe, parasite or virus in culture; type: cell-based; conditions: for Antibiotic MIC: alone, A. baumannii NT5-1
Experimental: as §1

[7] = test system: Escherichia coli T-24a – tet(X4); test: microbe, parasite or virus in culture; type: cell-based; conditions: for Antibiotic MIC: alone
Experimental: as §1

[8] = test system: Proteus penneri NT6-2 – tet(X6); test: microbe, parasite or virus in culture; type: cell-based; conditions: for Antibiotic MIC: alone, P. penneri NT6-2
Experimental: as §1

[9] = induced with 0.2%w/v L-arabinose
[10] = inhibitor in combination with tigecycline, lowest FICI
[11] = tigecycline in combination with the inhibitor, lowest FICI

O=c1c2ccccc2[se]n1-c1ccccc1 [Ebselen]
IC50 (Tet(X4) [1]; Tet(X4) (Polarization)): 40900 ± 11400 nM
IC50 (Tet(X4) [2]): 4.7 ± 1.5 µM

CCCCC1C(=O)N(c2ccccc2)N(c2ccccc2)C1=O [Phenylbutazone]
IC50 (Tet(X4) [1]; Tet(X4) (Polarization)): > 100000 nM
IC50 (Tet(X4) [2]): > 100 µM

CN(C)c1cc(NC(=O)CNC(C)(C)C)c(O)c2c1C[C@H]1C[C@H]3[C@H](N(C)C)C(O)=C(C(N)=O)C(=O)[C@@]3(O)C(O)=C1C2=O [Tigecycline]
IC50 (Tet(X4) [1]; FP assay): 18.6 ± 4.9 nM
IC50 (Tet(X4) [1]; Tet(X4) (Polarization)): 22 nM and 19 nM
MIC ([3]; read-out: Tigecycline MIC, L-arabinose 0 %w/v): 0.25 µg/mL
MIC ([3]; read-out: Tigecycline MIC, L-arabinose 0.0002 %w/v): 0.25 µg/mL
MIC ([3]; read-out: Tigecycline MIC, L-arabinose 0.002 %w/v): 0.5 µg/mL
MIC ([3]; read-out: Tigecycline MIC, L-arabinose 0.02 %w/v): 2 µg/mL
MIC ([3]; read-out: Tigecycline MIC, L-arabinose 0.2 %w/v): 8 µg/mL
MIC ([3]; read-out: Tigecycline MIC, L-arabinose 0.4 %w/v): 8 µg/mL
Antibiotic MIC [3, 9]: 4 µg/mL
Antibiotic MIC ([3]; without L-arabinose induction): 0.25 µg/mL
Antibiotic MIC ([4]; Acinetobacter spp. NT3-1): 4 µg/mL
Antibiotic MIC [5]: 32 µg/mL
Antibiotic MIC [6]: 8 µg/mL
Antibiotic MIC ([7]; E. coli T-24a): 16 µg/mL
Antibiotic MIC [8]: 8 µg/mL

CN1CCN(CCCN2c3ccccc3Sc3ccc(Cl)cc32)CC1 [Prochlorperazine]
MIC ([3]; read-out: Tet(X) Inhibitor MIC, alone, without L-arabinose induction): 64 µg/mL
Tet(X) inhibitor MIC [3, 9]: 64 µg/mL
Tet(X) inhibitor MIC ([3]; induced with 0.2%w/v L-arabinose, listed as prochlorperazine): 16 to 64 µg/mL
reduction of the tigecycline MIC ([3]; at high concentrations of inhibitor, 0.2%w/v L-arabinose): 2–4 fold
Combination (antibiotic/inhibitor) MIC: inhibitor ([3]; 0.2%w/v L-arabinose): 16 µg/mL
Combination (antibiotic/inhibitor) MIC: inhibitor ([3]; without L-arabinose): 32 µg/mL
Combination (antibiotic/inhibitor) MIC: antibiotic ([3]; 0.2%w/v L-arabinose): 2 µg/mL
Combination (antibiotic/inhibitor) MIC: antibiotic ([3]; without L-arabinose): 0.13 µg/mL
FICI ([3]; 0.2%w/v L-arabinose): 0.8
Outcome ([3]; 0.2%w/v L-arabinose): Indifferent (indifferent (0.5–4.0))
FICI ([3]; 0.2%w/v L-arabinose, listed as prochlorperazine): 0.5-1
FICI ([3]; without L-arabinose): 1
Outcome ([3]; without L-arabinose): indifferent (indifferent (0.5-4.0))
MIC ([4]; Acinetobacter, read-out: Tet(X) Inhibitor MIC, alone, Acinetobacter spp. NT3-1): 8 µg/mL
Combination (Antibiotic/Inhibitor) MICs: inhibitor [4, 10]: 8 µg/mL
Combination (Antibiotic/Inhibitor) MICs: antibiotic [4, 11]: 4 µg/mL
FICI ([4]; with tigecycline): 2
Outcome ([4]; with tigecycline): indifferent (indifferent (0.5-4.0))
MIC ([5]; Salmonella enterica, read-out: Tet(X) Inhibitor MIC): > 128 µg/mL
Combination (Antibiotic/Inhibitor) MICs: inhibitor [5, 10]: 64 µg/mL
Combination (Antibiotic/Inhibitor) MICs: antibiotic [5, 11]: 16 µg/mL
FICI ([5]; with tigecycline): 1
Outcome ([5]; with tigecycline): indifferent (indifferent (0.5-4.0))
MIC ([6]; Acinetobacter baumannii, read-out: Tet(X) Inhibitor MIC): 128 µg/mL
Combination (Antibiotic/Inhibitor) MICs: inhibitor [6, 10]: 64 µg/mL
Combination (Antibiotic/Inhibitor) MICs: antibiotic [6, 11]: 1 µg/mL
FICI ([6]; with tigecycline): 0.6
Outcome ([6]; with tigecycline): indifferent (indifferent (0.5-4.0))
MIC ([7]; Escherichia coli, read-out: Tet(X) Inhibitor MIC, alone, E. coli T-24a): 256 µg/mL
Combination (Antibiotic/Inhibitor) MICs: inhibitor [7, 10]: 32 µg/mL
Combination (Antibiotic/Inhibitor) MICs: antibiotic [7, 11]: 8 µg/mL
FICI ([7]; with tigecycline): 0.6
Outcome ([7]; with tigecycline): indifferent (indifferent (0.5-4.0))
MIC ([8]; Proteus penneri, read-out: Tet(X) Inhibitor MIC): > 128 µg/mL
Combination (Antibiotic/Inhibitor) MICs: inhibitor [8, 10]: 128 µg/mL
Combination (Antibiotic/Inhibitor) MICs: antibiotic [8, 11]: 4 µg/mL
FICI ([8]; with tigecycline): 2
Outcome ([8]; with tigecycline): indifferent (indifferent (0.5-4.0))

C[C@H]1c2cccc(O)c2C(=O)C2=C(O)[C@]3(O)C(=O)C(C(N)=O)=C(O)[C@@H](N(C)C)[C@@H]3[C@@H](O)[C@@H]21 [Doxycycline]
IC50 (Tet(X4) [1]; FP assay): 1580 ± 150 nM
Antibiotic MIC ([3]; 0.2%w/v L-arabinose (Table S7)): 32 µg/mL
Antibiotic MIC ([3]; without L-arabinose induction): 1 µg/mL
Antibiotic MIC ([4]; Acinetobacter spp. NT3-1): 8 µg/mL
Antibiotic MIC [5]: 32 µg/mL
Antibiotic MIC [6]: 32 µg/mL
Antibiotic MIC ([7]; E. coli T-24a): 32 µg/mL
Antibiotic MIC [8]: 16 µg/mL
